# pKi: −log10 of the molar value. Counter-ions that a name gives are not always drawn.
# Assays:
# 5-HT1A receptor = target: T1, 5-HT1A receptor (Bos taurus, UniProt F6Q2H9); test: Affinity for the 5-HT1A receptor, binding of 3H-ipsapirone in calf hippocampus membranes
# T1 construct: 5-HT1A receptors in calf hippocampus membranes; from tissue; host or cells: calf hippocampus membranes
# T1 sequence (F6Q2H9 1-422): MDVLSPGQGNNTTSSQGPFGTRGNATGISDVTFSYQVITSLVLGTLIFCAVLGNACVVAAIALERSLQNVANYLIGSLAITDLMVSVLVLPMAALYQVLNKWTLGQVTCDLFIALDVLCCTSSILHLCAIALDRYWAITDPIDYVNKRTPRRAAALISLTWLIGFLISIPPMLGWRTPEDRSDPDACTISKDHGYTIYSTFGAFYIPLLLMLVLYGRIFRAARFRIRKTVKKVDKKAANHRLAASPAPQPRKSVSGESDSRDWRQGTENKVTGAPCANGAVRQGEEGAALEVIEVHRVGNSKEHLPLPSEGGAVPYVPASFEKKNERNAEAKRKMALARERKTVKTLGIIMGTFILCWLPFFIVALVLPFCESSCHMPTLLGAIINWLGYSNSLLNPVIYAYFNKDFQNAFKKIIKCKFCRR
# Procedure: Affinity for the 5-HT1A receptor
# [W. U. Dompert et al., Naunyn-Schmiedeberg's Arch. Pharmacol. (1985), 328, 467-470].
# In this test, the binding of ^3 H-ipsapirone to 5-HT1A receptors in calf hippocampus membranes is measured.
# dopamine D2 receptor = target: T2, dopamine D2 receptor (Rattus norvegicus, UniProt P61169); test: Dopamine D2 receptor test, binding of 3H-sulpiride on membranes from the striatum of the rat; details: Ki calculated from IC50 of displacement curves
# T2 construct: membranes from the striatum of the rat; from tissue; host or cells: rat striatum membranes
# Procedure: Dopamine D2 receptor test
# This test is carried out according to the following reference: Imafuku J. (1987), Brain Research 402; 331-338.
# In this test, the binding of the selective D2 -receptor antagonist ^3 H-sulpiride on membranes from the striatum of the rat is measured. Compounds which bind to dopamine D2 -receptors inhibit the binding of ^3 H-sulpiride in a concentration-dependent manner. IC50 values are determined from the displacement curves and the inhibition constants Ki are calculated from these.
# 5-HT1 receptor = test: Affinity for the 5-HT1 receptor, receptor binding studies with 3H-serotonin on calf hippocampus membrane preparations
# Source text: Affinity for the 5-HT1 receptor
# In Table 1, the high affinity of the compounds according to the invention for 5-hydroxytryptamine receptors of the subtype 1 is represented by way of example. The values given are data which have been determined from receptor binding studies using calf hippocampus membrane preparations. The radioactively labelled ligand used for this was ^3 H-serotonin.
# T2 sequence (P61169 whole entry): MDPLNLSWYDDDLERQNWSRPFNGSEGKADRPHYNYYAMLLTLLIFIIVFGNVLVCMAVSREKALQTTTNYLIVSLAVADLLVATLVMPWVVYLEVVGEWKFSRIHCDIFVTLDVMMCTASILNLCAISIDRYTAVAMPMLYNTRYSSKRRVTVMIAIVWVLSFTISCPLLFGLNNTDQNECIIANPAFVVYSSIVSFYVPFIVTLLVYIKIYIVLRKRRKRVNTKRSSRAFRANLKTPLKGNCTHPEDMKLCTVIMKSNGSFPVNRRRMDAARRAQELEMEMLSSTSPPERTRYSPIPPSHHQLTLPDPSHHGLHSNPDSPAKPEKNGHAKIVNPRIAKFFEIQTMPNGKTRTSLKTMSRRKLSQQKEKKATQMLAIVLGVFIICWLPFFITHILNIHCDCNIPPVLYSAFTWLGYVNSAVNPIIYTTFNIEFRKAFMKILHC
Compound,pKi (5-HT1A receptor),pKi (dopamine D2 receptor),pKi (5-HT1 receptor)
"O=C1NCN(c2ccccc2)C12CCN(CC1CCc3ccccc3O1)CC2 (centres unmarked) [Example 5, 8-(Chroman-2-yl-methyl)-1-phenyl-1,3,8-triazaspiro[4.5]-decan-4-one HCl salt]",9.00,,
O=C1NCN(c2ccccc2)C12CCN(C[C@@H]1CCc3ccccc3O1)CC2 [Example 3],,9.22,
COc1cccc2c1OC(CN1CCC3(CC1)C(=O)NCN3c1ccccc1)CC2 (centres unmarked) [Example 2],,9.52,8.82
COc1cccc2c1OC(CN1CCC3(CC1)C(=O)NCN3c1ccccc1)CC2 (centres unmarked) [Example 6],9.00,,
O=C1NCN(c2ccccc2)C12CCN(C[C@H]1CCc3ccccc3O1)CC2 [Example 4],,,9.00
"O=C1NCN(c2ccccc2)C12CCN(CC1CCc3ccccc3O1)CC2 (centres unmarked) [Example 1, 8-(Chroman-2-yl-methyl)-1-phenyl-1,3,8-triazaspiro[4.5]-decan-4-one]",,9.70,8.70

# — US6060482A, “Triazaspirodecanone-methylchromans” (Bayer Aktiengesellschaft, priority 1991, dated 2000)
